Laboratory results from patent US6930103B2, “Use of vasopeptidase inhibitors in the treatment of metabolic diseases, nephropathy and advanced glycation end-product associated diseases” (Aventis Pharma Deutschland GmbH, priority 2002, dated 2005).

Tests used:
Format in all cases: in vivo, rat
ZDF rats [1] = experiment: RP-HPLC analysis of CML in kidney and heart of ZDF rats; details: for mean CML conc.: RP-HPLC, ZDF Placebo = 100
Procedure: (§1) Kidney AGE values were determined by Dot blot analysis (Stracke et al., Exp. Clin. Endocrinol. Diabets 2002, 109, 330-336) and Reversed-phase high performance liquid chromatography or RP-HPLC (Drusch et al., Food Chem. 1999, 65, 547-553).
[…] Two animals of each group were analyzed. Grinding of the kidney and heart was performed in liquid nitrogen using a freezer mill (Freezer 6750, C3 Analysetechnik GmbH). Hydrolysis of the organ samples was performed with 6 M hydrochloric acid (HCl) at 110° C. for 12 hours. Sample treatment with o-phthaldialdehyde (OPA) and RP-HPLC was performed as described in Drusch et al., Food Chem. 1999, 65, 547-553.

[2] = tested on: Zucker diabetic fatty rats; experiment: Blood glucose analysis in ZDF rats; details: for blood glucose, mean: ZDF rats
Procedure: (§2) Blood glucose and HbA1c was measured in 10- and 17-week-old male Zucker diabetic fatty rats (Genetic Model Inc.), control rats (Genetic Model Inc.) and male ZDF rats treated for seven weeks with 30 mg/kg/d of compound (II-B), 35 mg/kg/d of compound (III-B) and 1 mg/kg/d ramipril. Fifteen animals were analyzed in each group.
Blood samples for glucose determination were obtained from ZDF rats using standard sampling tubes. Within 30 minutes of collection, samples were separated from the cells by centrifugation. Quantitative determination of blood glucose in serum was performed with an enzymatic in vitro test from Roche Diagnostics GmbH (Gluco-quant, Roche Diagnostics GmbH) using the automated clinical chemistry analyzer Boehringer Mannheim/Hitachi 912.

ZDF rats [3] = experiment: Dot blot analysis of kidney AGE subtypes (CML, CEL, pentosidine) in ZDF rats
Procedure: as §1
Kidney-samples for the dot blot analysis were obtained from 17-week-old male ZDF rats, control rats and ZDF rats treated for seven weeks with 30 mg/kg/d of compound (II-B) and 35 mg/kg/d of compound (III-B). Three animals of each group were sacrificed, the kidneys removed and immediately frozen in liquid nitrogen. Grinding of the kidneys was performed in liquid nitrogen using a freezer mill (Freezer 6750, C3 Analysetechnik GmbH). Kidney sample (10 mg) was dissolved in 1 ml phosphate buffered saline (PBS containing 0.5 g/l Tween 20, 0.5 mM PMSF, […]). The solution was treated two times for five seconds with an ultrasonic cell disrupter (45% power, Bandolin Sonoplus HD 2070), centrifuged for 20 minutes at 4000 rpm and the supernatant was used for dot blot analysis. The nitrocellulose membrane was placed in the dot blot apparatus and washed twice with Tris Buffered Saline (TBS), 100 μl TBS/well. For each sample, 10 μg protein (protein concentration of the samples were determined with the DC Protein Assay, Bio Rad) was diluted in 100 μl TBS and loaded on to the nitrocellulose membrane (Amersham). The membrane was incubated over night in TBS with Tween 20 (TBST; 20 mM Tris, 137 mM NaCl, 0.05% v/v Tween 20) with 5% non-fat dry milk at 4° C. and incubated for 1 hour at room temperature using the following antibody concentration: anti-CML 011 (Biologo) 0.25 μg/ml, anti-CEL (Biologo) 0.25 μg/ml and anti-pentosidine 012 (Biologo) 0.25 μg/ml. After extensive washing in TBST with 5% non-fat dry milk, membranes were exposed to […] anti-mouse IgG antibodies (Dianova) for one hour at room temperature. Membranes were washed again and exposed to the enhanced chemofluorescence detection system (Amersham) according to manufacturer's instructions. Relative fluorescence was determined with the Fluor-Imager 595 (Molecular Dynamics) and quantified using the Image-Quant software. Results were expressed in relative fluorescence (rf) times 10^5 (rf*10^5).

fat ZDF rats = experiment: Histological examination of kidneys of ZDF rats after 6 months treatment; details: in words
Procedure: The protein and creatinine excretion in the urine of male Zucker Diabetic Fatty (ZDF) Rats (ZDF Gmi fa/fa) and heterozygous control animals (ZDF Gmi −/+) of 10, 17, 27 and 37 weeks age was determined. In further groups, diabetic rats were chronically given either ramipril (1 mg/kg/day, in drinking water) or a compound of formula (II-B) (30 mg/kg/day, in food) over a period from 10 to 37 weeks. The animals were sacrificied after 37 weeks, and their kidneys examined histologically.
In the attached tables a summary of the findings on the kidneys after a treatment period of 6 months is listed.

[4] = tested on: Zucker diabetic fatty rats; experiment: HbA1c analysis in ZDF rats; details: for HbA1c, mean: ZDF rats
Procedure: as §2
To obtain blood samples for HbA1c determination, disposable capillary tubes were used. HbA1c values were obtained from hemolyzed whole blood samples with a turbidimetric inhibition immunoassay (Tina-quant, Roche Diagnostics GmbH) and hemoglobin concentrations were determined in a second channel on an automated clinical chemistry analyzer (Boehringer Mannheim/Hitachi 912). HbA1c concentration in percent were calculated from HbA1c to total hemoglobin.

[5] = age 10 weeks (start of treatment)
[6] = age 17 weeks (treated for seven weeks)
[7] = 17-week-old ZDF rats treated for seven weeks, dot blot

CC(=O)S[C@@H](Cc1ccccc1)C(=O)N[C@H]1Cc2ccccc2[C@H]2CCC[C@@H](C(=O)O)N2C1=O [cpd. (III-B)]
mean CML conc. (ZDF rats [1]; hearts of 17-week-old ZDF rats): 66% | mean CML conc. (ZDF rats [1]; kidneys of 17-week-old ZDF rats): 60% | mean CML conc. (ZDF rats [1]; kidneys of 37-week-old ZDF rats): 93% | CML concentration in the heart of 17-week-old ZDF rats (ZDF rats [1]; in words): also reduces | CML concentration in the kidneys of 17-week-old ZDF rats (ZDF rats [1]; in words): also reduces | Blood glucose concentration compared to the untreated ZDF rats ([2]; 17-week-old ZDF rats, in words): significantly lower | blood glucose, mean [2, 5]: 10.37 mM | blood glucose, mean [2, 6]: 19.74 mM | Blood glucose value compared with the ACE inhibitor ramipril ([2]; in words): lower values | AGE-subtype CEL in the kidneys (anti-CEL), mean (ZDF rats [3]; [7]): 52.60 rf * 10^5 | AGE-subtype CML in the kidneys (anti-CML 011), mean (ZDF rats [3]; [7]): 38.67 rf * 10^5 | AGE-subtype pentosidine in the kidneys (anti-pentosidine 012), mean (ZDF rats [3]; [7]): 40.70 rf * 10^5 | Kidney AGE (Nε-(carboxymethyl)lysine or CML) values (ZDF rats [3]; diabetic rats, summary in words): lowers the CML value significantly | AGE values for subtype CEL compared to untreated ZDF rats (ZDF rats [3]; kidney, dot blot, in words): Lower AGE values | AGE values for subtype pentosidine compared to untreated ZDF rats (ZDF rats [3]; kidney, dot blot, in words): Lower AGE values | Incidence of glomerulosclerosis or associated degenerative lesions compared to fat ZDF controls (fat ZDF rats): no differences | HbA1c values compared to the untreated ZDF rats ([4]; 17-week-old ZDF rats, in words): significantly lower | HbA1c, mean [4, 5]: 5.60% | HbA1c, mean [4, 6]: 7.19% | HbA1c value compared with the ACE inhibitor ramipril ([4]; in words): lower values
